Data from US11219658B2, “Composition for preventing or treating diseases caused by caffeine abuse including Evodia officinalis extract or evodiamine as active ingredient” (priority 2016, dated 2022).
Marks after values point to notes of the source that are not given here.

Experiments:
[1] = tested on: mouse model having somnipathy caused by caffeine abuse; experiment: Caffeine-induced somnipathy, Entobar (pentobarbital)-induced sleep onset and sleep duration; type: in vivo, ICR male mice; details: for Change in sleep onset (% of Control) / Change in total sleep duration (% of Control): vehicle control = 100
Procedure: (§1) 4-week-old ICR male mice (20 to 22 g) were provided from Koatech (Pyeongtaek, Korea), acclimated by breeding for 1 week or more in an animal breeding room in the School of Pharmacy at Sungkyunkwan University, and freely fed water and feed. The temperature (23±2° C.), humidity (55±10%) and a dark/light cycle (12 hrs) were automatically controlled.
Specifically, the first group was a group treated with 10% DMSO-containing distilled water and 40 mg/kg of Entobar® as a control, the second group was a group treated with 10% DMSO-containing distilled water, 50 mg/kg of caffeine and 40 mg/kg of Entobar®, the third group was a group treated with 200 mg/kg of the Evodia officinalis extract, 50 mg/kg of caffeine and 40 mg/kg of Entobar®, and the fourth group was a group treated with 400 mg/kg of the Evodia officinalis extract, 50 mg/kg of caffeine and 40 mg/kg of Entobar®.
Regarding the administration method, the Evodia officinalis extract was dissolved in 10% DMSO-containing distilled water, orally administered to the mice at doses of 0, 200 and 400 mg/kg once a day for three days, and 30 minutes after the final administration. 50 mg/kg of caffeine was intraperitoneally injected into the mice. Thirty minutes after the caffeine injection, 40 mg/kg of Entobar® was intraperitoneally injected to induce sleep. Immediately after the Entobar® injection, the mice were put into each cage, and then sleep onset and sleep duration were measured.
To compare caffeine-induced somnipathy-improving effects of the Evodia officinalis extract and evodiamine, the Evodia officinalis hot water extract prepared in Example 3, ethanol extract thereof and evodiamine were orally administered to the mice prepared in Example 2 once a day for 3 days. 30 minutes after the final administration, 50 mg/kg of caffeine was intraperitoneally injected into the mice. After thirty minutes. 40 mg/kg of Entobar® was intraperitoneally injected to induce sleep, followed by measuring sleep onset and total sleep duration.

[2] = tested on: mouse model having motor activity increased by central nervous system stimulation due to caffeine abuse; experiment: Caffeine-induced central nervous system stimulation, motor activity in motor ability measurement box; type: in vivo, ICR male mice; details: for excitatory motor activity count (center count), percentage of movement in the center of the box: solvent control 16%; for excitatory motor activity time (center time), percentage of maintenance in the center of the box: solvent control 3%; for total movement of excitatory motor activity: solvent control 7,107 cm
Procedure: as §1
To measure an inhibitory effect of evodiamine on caffeine-induced central nervous system stimulation, the mice prepared in Example 2 were divided into four groups of 12 mice, and treated with evodiamine and caffeine in a different manner. The first group was a group treated with distilled water containing 10% DMSO (control), the second group was a group treated with 10% DMSO-containing distilled water and 10 mg/kg of caffeine, the third group was a group treated with 10 mg/kg of evodiamine and 10 mg/kg of caffeine, and the fourth group was a group treated with 20 mg/kg of evodiamine and 10 mg/kg of caffeine.
Evodiamine was dissolved in 10% DMSO-containing distilled water, and orally administered to mice at doses of 0, 10 and 20 mg/kg, and 30 minutes later, intraperitoneally injected with caffeine 10 mg/kg of caffeine. Then, after 30 minutes, the mice were put into a motor ability measurement box (diameter: 30×30×30 (cm)), and measured for a total of 60 minutes using a video measurement and analysis system (Neurovision, Busan, Korea), followed by conversion of the improvement or inhibition in an increased excitatory motor activity count (center count), excitatory motor activity time (center time) and total movement of excitatory motor activity (total movement) to percentage (%).

[3] = caffeine 50 mg/kg i.p. alone + Entobar 40 mg/kg i.p.
[4] = evodiamine 5 mg/kg p.o. once a day for 3 days + caffeine 50 mg/kg i.p. + Entobar 40 mg/kg i.p.
[5] = evodiamine 10 mg/kg p.o. once a day for 3 days + caffeine 50 mg/kg i.p. + Entobar 40 mg/kg i.p.

## Cn1c(=O)c2c(ncn2C)n(C)c1=O [caffeine, 1,3,7-trimethylxanthine]
[1]; caffeine 50 mg/kg i.p. + Entobar 40 mg/kg i.p., control without caffeine 219 seconds
  sleep onset: 371 s
[1]; caffeine 50 mg/kg i.p. + Entobar 40 mg/kg i.p., control without caffeine 2,940 seconds
  sleep duration: 1,812 seconds
[1]; [3]
  Change in sleep onset (% of Control): 166.8 *** % of Control
  Change in total sleep duration (% of Control): 57.4 ** % of Control
[2]; caffeine 10 mg/kg i.p. alone (10% DMSO vehicle p.o.), 60 min measurement
  excitatory motor activity count (center count), percentage of movement in the center of the box: 23%
[2]; caffeine 10 mg/kg i.p. alone
  excitatory motor activity time (center time), percentage of maintenance in the center of the box: 9%
  total movement of excitatory motor activity: 15,078 cm

## CN1c2ccccc2C(=O)N2CCc3c([nH]c4ccccc34)C21 (centres unmarked) [evodiamine]
[1]; [4]
  Change in sleep onset (% of Control): 138.7 % of Control
  Change in total sleep duration (% of Control): 100.5 # % of Control
[1]; [5]
  Change in sleep onset (% of Control): 108.2 # % of Control
  Change in total sleep duration (% of Control): 94.0 % of Control
[2]; evodiamine 10 mg/kg p.o. + caffeine 10 mg/kg i.p., caffeine control 9%
  excitatory motor activity time (center time), percentage of maintenance in the center of the box: 7%
[2]; evodiamine 10 mg/kg p.o. + caffeine 10 mg/kg i.p., caffeine control 23%
  excitatory motor activity count (center count), percentage of movement in the center of the box: 20%
[2]; evodiamine 10 mg/kg p.o. + caffeine 10 mg/kg i.p., caffeine control 15,078 cm
  total movement of excitatory motor activity: 12,734 cm
[2]; evodiamine 20 mg/kg p.o. + caffeine 10 mg/kg i.p., caffeine control 9%
  excitatory motor activity time (center time), percentage of maintenance in the center of the box: 5%
[2]; evodiamine 20 mg/kg p.o. + caffeine 10 mg/kg i.p., caffeine control 23%
  excitatory motor activity count (center count), percentage of movement in the center of the box: 19%
[2]; evodiamine 20 mg/kg p.o. + caffeine 10 mg/kg i.p., caffeine control 15,078 cm
  total movement of excitatory motor activity: 10,910 cm
